Measured values from US20200022998A1, “MEDICAL USE OF NOTCH4 OR INHIBITORS THEREOF” (BEIJING INSTITUTE OF GENOMICS, CHINESE ACADEMY OF SCIENCES, priority 2016, published 2020).

How the values were obtained:
Format in all cases: cell-based, human
[1] = tested on: umbilical cord blood-derived CD34+ cells; test: in vitro megakaryocyte lineage differentiation of umbilical cord blood-derived CD34+ cells, flow cytometry; conditions: 10 μM; for number of mature megakaryocytes (CD41+CD42+) produced, increase vs control group: FIG. 15; for proportion of mature megakaryocyte (CD61+), increase vs control group / proportion of mature megakaryocytes MK (CD41+CD42+) produced, increase vs control group: cells collected at D14, FIG. 14
Method: (1) CD34^+ cells in umbilical cord blood were obtained by Ficoll-Paque PLUS density gradient centrifugation and magnetic bead sorting using CD34 MicroBead Kit. As to the particular steps, please refer to (GE Healthcare Life Sciences, http://www.gelifesciences.com), (Miltenyi Biotec, http://www.miltenyibiotec.com.cn).
(2) Differentiation of umbilical cord blood-derived CD34^+ cells into megakaryocytes: umbilical cord blood-derived CD34^+ cells were counted, and seeded at 1*10^6 cells to 4 ml StemSpan™ SFEM 11+50 ng/ml SCF+50 ng/ml TPO+50 ng/ml IL-6+20 ng/ml IL-3 in a 12-well plate, with 1 ml medium for each well, and four wells in total, to which 10 μM R04929097, 10 μM L-685458, 10 μM DAPT, and the same volume of DMSO as control were added, respectively, and the time was recorded as Day 0. The liquid was changed every 3 days, and the culture condition was 37° C., 5% CO2. After incubation for 6 days, the cell density was high, and the cells in each well were divided into two wells of a 12-well plate, with 2 ml medium for each well. The inhibitors were added at the same concnetrations as described above. The cells were collected at D14, counted, and detected for cell surface markers (CD41, CD42, CD61) by flow cytometer.
As to the collection of umbilical cord blood-derived CD34^+ cells, in vitro megakaryocytic differentiation and detection, please refer to Example 4-1.

[2] = tested on: iPSCs-derived CD34+ cells; test: polyploid detection, iPSC-derived CD34+ cells; conditions: 10 μM; Notch inhibitor added since Day 5; DMSO about 18%; FIG. 17
Method: iPSC-derived CD34^+ cells (prepared by the method as described in Example 3-2) and umbilical cord blood-derived CD34^+ cells were seeded at 1*10^6 cells per well to 4 ml StemSpan™ SFEM 11+50 ng/ml SCF+50 ng/ml TPO+50 ng/ml IL-6+20 ng/ml IL-3, in a 12-well plate, with 1 ml medium for each well, and 3 wells in total for each cell line, […] The liquid was changed every 3 days, and the culture condition was 37° C., 5% CO2. After iPSC-derived CD34^+ cells were incubated for 6 days, and umbilical cord blood-derived CD34^+ cells were incubated for 9 days, the following experiment was carried out.
(§1) Cells were labeled with CD61-FITC flow cytometric antibody at 4° C. for 30 min. The cells were washed with PBS once, and fixed with 70% ethanol at 4° C. overnight. At the second day, the cells were washed with PBS once. After centriguation, 1 ml PBE (PBS containing 2% serum) +100 μg/ml RNase A +50 μg/ml Propidium Iodide, was added, and incubation was carried out in dark at room temperature for 30 min. The cells were washed with PBS once, and the number of cells (≥8N) in CD61^+ cell population was determined by flow cytometry.

[3] = tested on: umbilical cord blood-derived CD34+ cells; test: polyploid detection, umbilical cord blood-derived CD34+ cells; conditions: 10 μM; DMSO about 16%; FIG. 18
Method: (§2) iPSC-derived CD34^+ cells (prepared by the method as described in Example 3-2) and umbilical cord blood-derived CD34^+ cells were seeded at 1*10^6 cells per well to 4 ml StemSpan™ SFEM 11+50 ng/ml SCF+50 ng/ml TPO+50 ng/ml IL-6+20 ng/ml IL-3, in a 12-well plate, with 1 ml medium for each well, and 3 wells in total for each cell line, to which 10 μM RO4929097, 10 μM DAPT, and the same volume of DMSO as control, were added, respectively, and the time was recorded as Day 0. The liquid was changed every 3 days, and the culture condition was 37° C., 5% CO2. After iPSC-derived CD34^+ cells were incubated for 6 days, and umbilical cord blood-derived CD34^+ cells were incubated for 9 days, the following experiment was carried out.
as §1

[4] = tested on: iPSCs-derived CD34+ cells; test: proplatelet formation, iPSC-derived CD34+ cells; conditions: 10 μM; DMSO about 47%; FIG. 19D
Method: as §2
(§3) Proplatelet formation of MKs referred to mature megakaryocytes, which extended long and branched filaments and cytoplasmic protrusions.

[5] = tested on: umbilical cord blood-derived CD34+ cells; test: proplatelet formation, umbilical cord blood-derived CD34+ cells; conditions: 10 μM; DMSO about 44%; FIG. 20D
Method: as §2, §3

C[C@H](NC(=O)Cc1cc(F)cc(F)c1)C(=O)N[C@H](C(=O)OC(C)(C)C)c1ccccc1 [DAPT]
number of mature megakaryocytes (CD41+CD42+) produced, increase vs control group [1]: 2.9 folds | proportion of mature megakaryocyte (CD61+), increase vs control group [1]: 2.5 folds | proportion of mature megakaryocytes MK (CD41+CD42+) produced, increase vs control group [1]: 4.1 folds | proportion of polyploid megakaryocytes (≥8N) in CD61+ megakaryocytes [2]: ~21% | proportion of polyploid megakaryocytes (≥8N) in CD61+ megakaryocytes [3]: ~12% | proportion of proplatelet-bearing MKs in 100 differentiated cells [4]: ~50% | proportion of proplatelet-bearing MKs in 100 differentiated cells [5]: ~42%

CC(C)(C(=O)NCC(F)(F)C(F)(F)F)C(=O)N[C@@H]1C(=O)Nc2ccccc2-c2ccccc21 [RO4929097]
number of mature megakaryocytes (CD41+CD42+) produced, increase vs control group [1]: 2.9 folds | proportion of mature megakaryocyte (CD61+), increase vs control group [1]: 3.1 folds | proportion of mature megakaryocytes MK (CD41+CD42+) produced, increase vs control group [1]: 4.5 folds | proportion of polyploid megakaryocytes (≥8N) in CD61+ megakaryocytes [2]: about 17% | proportion of polyploid megakaryocytes (≥8N) in CD61+ megakaryocytes [3]: about 15% | proportion of proplatelet-bearing MKs in 100 differentiated cells [4]: about 46% | proportion of proplatelet-bearing MKs in 100 differentiated cells [5]: about 40%
